# Counter-ions that a name gives are not always drawn.
# Columns and labels:
# [1] = target: PI3Kγ (p110γ) Recombinant Human Protein (Homo sapiens (Human), UniProt P48736); experiment: PI3K-γ Scintillation Proximity Assay; format: biochemical; conditions: 20 μM PIP2, 2 μM ATP, 13 nM PI3Kγ, 120 min; read-out: PI3K-gamma SPA IC50
# Procedure: [γ-^33P]ATP (10 mCi/mL) and Wheat Germ Agglutinin (WGA) YSi SPA Scintillation Beads was purchased from Perkin-Elmer (Waltham, Mass.). […] PI3Kγ (p110γ) Recombinant Human Protein was purchased from Life technology (Grand Island, N.Y.). ATP, MgCl2, DTT, EDTA, MOPS and CHAPS were purchased from Sigma-Aldrich (St. Louis, Mo.).
# The kinase reaction was conducted in polystyrene 384-well Greiner Bio-one white plate from Thermo Fisher Scientific in a final volume of 25 μL. Inhibitors were first diluted serially in DMSO and added to the plate wells before the addition of other reaction components. The final concentration of DMSO in the assay was 2%. The PI3Kγ assay was carried out at room temperature in 20 mM MOPS, pH 6.7, 10 mM MgCl2, 5 mM DTT and CHAPS 0.03%. Reactions were initiated by the addition of ATP, the final reaction mixture consisted of 20 μM PIP2, 2 μM ATP, 0.5 μCi [γ-^33P] […] The final concentration of SPA beads is 1.0 mg/mL. After the plate sealing, plates were shaken overnight at room temperature and centrifuged at 1500 rpm for 10 min, the radioactivity of the product was determined by scintillation counting on Topcount (Perkin-Elmer). IC50 determination was performed by fitting the curve of percent of the solvent control activity versus the log of the inhibitor concentration using the GraphPad Prism 6.0 software.
# [2] = target: PI3Kδ (p110δ/p85α) Recombinant Human Protein (Homo sapiens (Human), UniProt O00329); experiment: PI3Kδ Scintillation Proximity Assay; format: biochemical; conditions: 20 μM PIP2, 2 μM ATP, 3.4 nM PI3Kδ, 120 min; read-out: PI3K-delta SPA IC50
# PI3Kδ (p110δ/p85α) Recombinant Human Protein, sequence (O00329 whole entry): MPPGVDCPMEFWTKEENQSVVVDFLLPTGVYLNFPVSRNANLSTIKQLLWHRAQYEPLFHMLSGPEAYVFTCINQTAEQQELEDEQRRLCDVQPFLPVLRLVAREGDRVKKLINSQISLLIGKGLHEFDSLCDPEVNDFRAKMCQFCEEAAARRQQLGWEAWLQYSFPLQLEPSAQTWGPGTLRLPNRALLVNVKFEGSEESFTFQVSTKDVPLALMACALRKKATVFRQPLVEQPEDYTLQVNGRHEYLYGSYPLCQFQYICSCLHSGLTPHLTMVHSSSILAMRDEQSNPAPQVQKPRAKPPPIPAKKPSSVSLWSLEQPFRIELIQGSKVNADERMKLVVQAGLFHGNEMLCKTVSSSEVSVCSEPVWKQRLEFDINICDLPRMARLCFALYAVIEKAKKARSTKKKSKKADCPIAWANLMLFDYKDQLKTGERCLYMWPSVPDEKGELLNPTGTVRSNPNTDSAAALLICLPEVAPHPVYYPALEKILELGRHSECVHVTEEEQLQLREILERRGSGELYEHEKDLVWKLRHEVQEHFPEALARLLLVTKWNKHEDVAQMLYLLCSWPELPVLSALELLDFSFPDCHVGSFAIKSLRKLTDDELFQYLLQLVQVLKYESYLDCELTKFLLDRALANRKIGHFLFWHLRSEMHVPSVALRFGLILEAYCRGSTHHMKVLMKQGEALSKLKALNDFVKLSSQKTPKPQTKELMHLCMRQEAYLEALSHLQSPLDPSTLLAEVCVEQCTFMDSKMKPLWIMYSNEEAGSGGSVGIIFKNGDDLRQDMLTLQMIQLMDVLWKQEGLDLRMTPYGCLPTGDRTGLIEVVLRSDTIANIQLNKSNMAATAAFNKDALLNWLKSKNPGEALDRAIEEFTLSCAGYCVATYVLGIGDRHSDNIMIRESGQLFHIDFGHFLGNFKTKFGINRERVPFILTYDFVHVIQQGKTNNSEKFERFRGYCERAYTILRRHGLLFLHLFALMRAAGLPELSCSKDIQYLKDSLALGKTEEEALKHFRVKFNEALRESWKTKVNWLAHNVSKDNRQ
# PI3Kδ (p110δ/p85α) Recombinant Human Protein, sequence (P27986 whole entry partner): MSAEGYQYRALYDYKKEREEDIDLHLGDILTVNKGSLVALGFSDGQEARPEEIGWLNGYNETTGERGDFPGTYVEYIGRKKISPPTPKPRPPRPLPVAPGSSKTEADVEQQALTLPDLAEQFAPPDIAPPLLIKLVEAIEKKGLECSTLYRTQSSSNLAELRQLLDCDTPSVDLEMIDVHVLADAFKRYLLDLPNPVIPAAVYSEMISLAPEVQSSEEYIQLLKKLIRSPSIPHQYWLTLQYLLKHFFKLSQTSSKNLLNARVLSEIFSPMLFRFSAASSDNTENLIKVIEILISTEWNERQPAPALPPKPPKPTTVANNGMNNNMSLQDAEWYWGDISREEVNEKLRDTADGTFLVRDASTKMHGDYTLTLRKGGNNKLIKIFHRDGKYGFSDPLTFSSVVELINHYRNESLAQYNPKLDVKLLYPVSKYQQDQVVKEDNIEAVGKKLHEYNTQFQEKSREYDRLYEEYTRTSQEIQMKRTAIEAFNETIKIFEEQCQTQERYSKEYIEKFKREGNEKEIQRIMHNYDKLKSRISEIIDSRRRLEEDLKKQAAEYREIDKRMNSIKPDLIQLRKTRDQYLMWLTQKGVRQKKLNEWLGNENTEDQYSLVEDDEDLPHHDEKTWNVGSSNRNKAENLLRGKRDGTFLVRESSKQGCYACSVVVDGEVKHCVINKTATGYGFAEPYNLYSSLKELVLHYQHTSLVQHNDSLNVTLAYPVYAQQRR
# Excerpt: [γ-^33P]ATP (10 mCi/mL) and Wheat Germ Agglutinin (WGA) YSi SPA Scintillation Beads was purchased from Perkin-Elmer (Waltham, Mass.). Lipid kinase substrate, D-myo-Phosphatidylinositol 4,5-bisphosphate (PtdIns(4,5)P2)D (+)-sn-1,2-di-O-octanoylglyceryl, 3-O-phospho linked (PIP2), CAS 204858-53-7, was purchased from Echelon Biosciences (Salt Lake City, Utah). PI3Kδ (p110δ/p85α) Recombinant Human Protein was purchased from Eurofins (St Charles, Mo.). ATP, MgCl2, DTT, EDTA, MOPS and CHAPS were purchased from Sigma-Aldrich (St. Louis, Mo.).
# The kinase reaction was conducted in polystyrene 384-well Greiner Bio-one white plate from Thermo Fisher Scientific in a final volume of 25 μL. Inhibitors were first diluted serially in DMSO and added to the plate wells before the addition of other reaction components. The final concentration of DMSO in the assay was 2%. The PI3Kδ assay was carried out at room temperature in 20 mM MOPS, pH 6.7, 10 mM MgCl2, 5 mM DTT and CHAPS 0.03%. Reactions were initiated by the addition of ATP, the final reaction mixture consisted of 20 μM PIP2, 2 μM ATP, 0.5 μCi [γ-^33P] ATP, 3.4 nM PI3Kδ. Reactions were incubated for 120 min and terminated by the addition of 40 μL SPA beads suspended in quench buffer: 163 mM potassium phosphate pH 7.8, 20% glycerol, 25 mM EDTA. The final concentration of SPA beads is 1.0 mg/mL. After the plate sealing, plates were shaken overnight at room temperature and centrifuged at 1500 rpm for 10 min, the radioactivity of the product was determined by scintillation counting on Topcount (Perkin-Elmer). IC50 determination was performed by fitting the curve of percent of the solvent control activity versus the log of the inhibitor concentration using the GraphPad Prism 6.0 software.
# PI3Kγ (p110γ) Recombinant Human Protein, sequence (P48736 whole entry): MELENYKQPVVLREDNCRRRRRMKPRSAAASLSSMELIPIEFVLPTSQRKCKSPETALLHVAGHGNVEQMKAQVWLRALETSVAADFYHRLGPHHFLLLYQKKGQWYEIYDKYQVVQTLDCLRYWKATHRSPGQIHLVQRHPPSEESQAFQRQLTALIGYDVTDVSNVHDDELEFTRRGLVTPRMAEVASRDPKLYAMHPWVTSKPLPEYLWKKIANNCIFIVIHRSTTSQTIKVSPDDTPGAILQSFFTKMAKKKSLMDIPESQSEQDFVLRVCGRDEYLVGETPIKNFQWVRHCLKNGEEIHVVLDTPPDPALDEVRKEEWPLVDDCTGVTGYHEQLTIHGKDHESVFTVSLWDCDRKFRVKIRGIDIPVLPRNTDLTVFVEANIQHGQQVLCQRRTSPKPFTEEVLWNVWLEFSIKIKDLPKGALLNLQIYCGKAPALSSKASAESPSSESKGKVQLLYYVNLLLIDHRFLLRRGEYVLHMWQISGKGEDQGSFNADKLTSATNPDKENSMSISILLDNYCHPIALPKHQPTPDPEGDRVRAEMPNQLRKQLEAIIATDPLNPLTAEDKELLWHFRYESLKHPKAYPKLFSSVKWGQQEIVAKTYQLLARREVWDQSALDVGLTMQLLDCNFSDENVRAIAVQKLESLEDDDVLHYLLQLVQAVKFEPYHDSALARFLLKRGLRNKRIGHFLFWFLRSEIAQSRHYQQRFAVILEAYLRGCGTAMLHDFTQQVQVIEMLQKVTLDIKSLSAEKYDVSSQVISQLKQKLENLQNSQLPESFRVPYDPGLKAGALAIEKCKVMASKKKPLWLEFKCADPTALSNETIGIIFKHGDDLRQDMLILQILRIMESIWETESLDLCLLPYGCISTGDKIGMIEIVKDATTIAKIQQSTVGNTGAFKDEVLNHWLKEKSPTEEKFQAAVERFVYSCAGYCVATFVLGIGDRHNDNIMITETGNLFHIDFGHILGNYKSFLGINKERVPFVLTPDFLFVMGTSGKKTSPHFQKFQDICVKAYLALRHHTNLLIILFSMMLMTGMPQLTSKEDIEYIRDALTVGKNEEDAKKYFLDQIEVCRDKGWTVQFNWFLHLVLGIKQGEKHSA
SMILES,IC50 [1] [nM],IC50 [2] [nM]
"COc1cncc(-c2ccc3nc(-c4cnc(C5CCOC5)[nH]4)oc3c2)c1 (centres unmarked) [Example 43, 6-(5-Methoxy-pyridin-3-yl)-2-(2-(tetrahydro-furan-3-yl)-1H-imidazol-5-yl)benzo[d] oxazole]",< 5000,≥ 5000
"Cc1nc(-c2nc3ccc(-c4cncc(S(C)(=O)=O)c4)cc3o2)[nH]c1C [Example 62, 2-(4,5-Dimethyl-1H-imidazol-2-yl)-6-(5-(methylsulfonyl)pyridin-3-yl)benzo[d]oxazole bis(trifluoroacetate)]",< 1000,< 5000
"c1ccc(CN2CCN(c3ccc4nc(-c5nc6ccccc6[nH]5)oc4c3)CC2)cc1 [Example 55, 2-(1H-Benzimidazol-2-yl)-6-(4-benzylpiperazin-1-yl)-1,3-benzoxazole tris(trifluoroacetate)]",< 5000,≥ 5000
"COc1cncc(-c2ccc3nc(-c4cc5ccccc5[nH]4)oc3c2)c1 [Example 5, 2-(1H-Indol-2-yl)-6-(5-methoxypyridin-3-yl)benzo[d]oxazole trifluoroacetate]",< 250,< 1000
"COc1cncc(-c2ccc3nc(-c4nc5cc(F)ccc5[nH]4)oc3c2)c1 [Example 10, 2-(5-Fluoro-1H-benzo[d]imidazol-2-yl)-6-(5-methoxypyridin-3-yl)benzo[d]oxazole]",< 1000,≥ 5000
"CS(=O)(=O)c1cncc(-c2ccc3nc(-c4nc5ccccc5[nH]4)oc3c2)c1 [Example 36, 2-(1H-Benzo[d]imidazol-2-yl)-6-(5-(methylsulfonyl)pyridin-3-yl)benzo[d]oxazole]",< 250,< 5000
"Cc1ncc(-c2ccc3nc(-c4nc5ccccc5[nH]4)oc3c2)cc1NS(=O)(=O)c1ccc(F)cc1 [Example 28, N-(5-(2-(1H-Benzo[d]imidazol-2-yl)benzo[d]oxazol-6-yl)-2-methylpyridin-3-yl)-4-fluorobenzenesulfonamide]",< 250,< 250
"c1ccc(Cn2cc(-c3ccc4nc(-c5nc6ccccc6[nH]5)oc4c3)cn2)cc1 [Example 48, 2-(1H-Benzimidazol-2-yl)-6-(1-benzyl-1H-pyrazol-4-yl)-1,3-benzoxazole]",< 250,< 5000
"CCn1ncc2ccc(-c3ccc4nc(-c5nc6ccccc6[nH]5)oc4c3)cc21 [Example 54, 2-(1H-benzimidazol-2-yl)-6-(1-ethyl-1H-indazol-6-yl)-1,3-benzoxazole bis(trifluoroacetate)]",< 250,≥ 5000
"Cc1ncc(-c2ccc3nc(-c4nc5ccccc5[nH]4)oc3c2)cc1NS(=O)(=O)N(C)C [Example 22, N′-{5-[2-(1H-Benzimidazol-2-yl)-1,3-benzoxazol-6-yl]-2-methylpyridin-3-yl}-N,N-dimethylsulfamide]",< 250,< 250
"CN1CCN(S(=O)(=O)Nc2cc(-c3ccc4nc(-c5nc6ccccc6[nH]5)oc4c3)cnc2F)CC1 [Example 32, N-(5-(2-(1H-Benzo[d]imidazol-2-yl)benzo[d]oxazol-6-yl)-2-fluoropyridin-3-yl)-4-methylpiperazine-1-sulfonamide]",< 250,< 250
"COc1cncc(-c2ccc3nc(-c4nc5ccccc5[nH]4)oc3c2)c1 [Example 4, 2-(1H-Benzo[d]imidazol-2-yl)-6-(5-methoxypyridin-3-yl)benzo[d]oxazole trifluoroacetate]",< 250,< 5000
"CCn1ncc2ncc(-c3ccc4nc(-c5nc6ccccc6[nH]5)oc4c3)cc21 [Example 57, 6-[2-(1H-Benzimidazol-2-yl)-1,3-benzoxazol-6-yl]-1-ethyl-1H-pyrazolo[4,3-b]pyridine tris(trifluoroacetate)]",< 250,< 1000
"CCS(=O)(=O)Nc1cc(-c2ccc3nc(-c4nc5ccccc5[nH]4)oc3c2)cc(F)c1OC [Example 80, N-(5-(2-(1H-Benzo [d]imidazol-2-yl)benzo[d]oxazol-6-yl)-3-fluoro-2-methoxyphenyl) ethanesulfonamide bis(trifluoroacetate)]",< 250,< 5000
"Fc1ccc(-c2ccc3nc(-c4nc5ccccc5[nH]4)oc3c2)cc1F [Example 51, 2-(1H-Benzimidazol-2-yl)-6-(3,4-difluorophenyl)-1,3-benzoxazole trifluoroacetate]",< 250,≥ 5000

# The remaining lines, values ahead:
IC50 [1] [nM],IC50 [2] [nM],SMILES
< 250,< 250,"CCS(=O)(=O)Nc1cc(-c2ccc3nc(-c4nc5c([nH]4)CCCC5)oc3c2)cnc1OC [Example 66, N-(2-Methoxy-5-(2-(4,5,6,7-tetrahydro-1H-benzo[d]imidazol-2-yl)benzo[d]oxazol-6-yl)pyridin-3-yl)ethanesulfonamide]"
< 250,< 250,"CCCc1nc(-c2nc3ccc(-c4cncc(NS(=O)(=O)CC)c4)cc3o2)[nH]c1C [Example 64, N-(5-(2-(5-Methyl-4-propyl-1H-imidazol-2-yl)benzo[d]oxazol-6-yl)pyridin-3-yl)ethanesulfonamide bis(trifluoroacetate)]"
< 250,< 5000,"COc1cncc(-c2ccc3nc(-c4nc5cc(C)ccc5[nH]4)oc3c2)c1 [Example 11, 6-(5-Methoxypyridin-3-yl)-2-(5-methyl-1H-benzo[d]imidazol-2-yl)benzo[d]oxazole]"
< 250,< 250,"O=S(=O)(Nc1cc(-c2ccc3nc(-c4nc5ccccc5[nH]4)oc3c2)cnc1Cl)c1ccc(F)cc1 [Example 29, N-(5-(2-(1H-Benzo[d]imidazol-2-yl)benzo[d]oxazol-6-yl)-2-chloropyridin-3-yl)-4-fluorobenzenesulfonamide]"
< 250,< 1000,"CCS(=O)(=O)Nc1cc(-c2ccc3nc(-c4nc5ccccc5[nH]4)oc3c2)cnc1F [Example 27, N-(5-(2-(1H-Benzo[d]imidazol-2-yl)benzo[d]oxazol-6-yl)-2-fluoropyridin-3-yl)ethanesulfonamide]"
< 250,< 5000,"CP(C)(=O)c1cncc(-c2ccc3nc(-c4nc5ccccc5[nH]4)oc3c2)c1 [Example 72, 2-(1H-Benzo[d]imidazol-2-yl)-6-(5-(dimethyl-phosphoryl)pyridin-3-yl)benzo[d]oxazole bis(trifluoroacetate)]"
< 250,< 250,"O=S(=O)(Nc1cc(-c2ccc3nc(-c4nc5ccccc5[nH]4)oc3c2)cnc1F)c1ccc(F)cc1 [Example 30, N-(5-(2-(1H-Benzo[d]imidazol-2-yl)benzo[d]oxazol-6-yl)-2-fluoropyridin-3-yl)-4-fluorobenzenesulfonamide]"
< 250,< 250,"CN(C)S(=O)(=O)Nc1cc(-c2ccc3nc(-c4nc5ccccc5[nH]4)oc3c2)cnc1F [Example 23, N′-{5-[2-(1H-Benzimidazol-2-yl)-1,3-benzoxazol-6-yl]-2-fluoropyridin-3-yl}-N,N-dimethylsulfamide]"
< 250,< 1000,"CN(C)S(=O)(=O)Nc1cncc(-c2ccc3nc(-c4ncc[nH]4)oc3c2)c1 [Example 41, N′-{5-[2-(1H-Imidazol-2-yl)-1,3-benzoxazol-6-yl]pyridin-3-yl}-N,N-dimethyl-sulfamide]"
< 250,< 5000,"c1ccc2[nH]c(-c3nc4ccc(-c5ccc6[nH]ncc6c5)cc4o3)nc2c1 [Example 49, 2-(1H-Benzimidazol-2-yl)-6-(1H-indazol-5-yl)-1,3-benzoxazole]"

# Reference: patent publication US9586949B2, “Aza-heteroaryl compounds as PI3K-gamma inhibitors” (Incyte Corporation, priority 2015, dated 2017)
